Data on 77 compounds can be found in ChEMBL document CHEMBL3714750, “Aryl sulfonamides” (2008).

The term IC50 denotes the concentration at which inhibition is half-maximal.

A value given as a limit tells only on which side of the number the result lay.

This experiment has as its target T1, C-C chemokine receptor type 9 (Homo sapiens, UniProt P51686).
T1 sequence (P51686 whole entry): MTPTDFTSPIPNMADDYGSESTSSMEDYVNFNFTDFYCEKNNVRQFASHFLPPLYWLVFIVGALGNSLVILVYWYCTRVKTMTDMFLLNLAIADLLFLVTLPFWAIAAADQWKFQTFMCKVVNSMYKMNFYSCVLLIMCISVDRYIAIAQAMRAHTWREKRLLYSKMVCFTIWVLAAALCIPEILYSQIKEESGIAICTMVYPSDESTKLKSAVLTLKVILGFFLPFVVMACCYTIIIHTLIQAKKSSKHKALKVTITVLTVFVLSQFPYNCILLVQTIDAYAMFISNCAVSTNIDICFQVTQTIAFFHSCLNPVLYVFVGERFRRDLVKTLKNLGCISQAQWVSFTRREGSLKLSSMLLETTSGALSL
Description: Antagonist activity against CCR9 in human MOLT4 cells assessed as inhibition of human recombinant TECK-induced calcium response pre-treated before TECK stimulation by Flou-4-AM dye based FLIPR assay. It counts as functional, cell-based, MOLT-4.
Regarding `Cc1ccc(C(=O)c2cc(Cl)ccc2NS(=O)(=O)c2ccc(N3C[C@@H](C)O[C@@H](C)C3)c(F)c2)cn1`, the IC50 was under 1000 nM.

Consider `CC(C)Oc1ccc(S(=O)(=O)Nc2ccc(Cl)cc2C(=O)c2ccncc2)cc1`, for which the IC50 is under 1000 nM.

Take `CC(C)(c1ccc(S(=O)(=O)Nc2ccc(Cl)cc2C(=O)c2ccncc2)cc1)c1cocn1`: the IC50 was under 1000 nM.

For the compound `Cc1ccc(C(=O)c2cc(Cl)ccc2NS(=O)(=O)c2ccc(-c3cnco3)cc2)cn1`, the half-maximal inhibitory concentration (IC50) was under 1000 nM.

Regarding `O=C(c1ccncc1)c1cc(Cl)ccc1NS(=O)(=O)c1ccc(-c2cccnc2F)cc1`, the IC50 is over 1000 nM.

Consider `O=C(c1cccnc1)c1cc(Cl)ccc1NS(=O)(=O)c1ccc(N2CCOCC2)cc1`, for which the concentration for half-maximal inhibition (IC50) is under 1000 nM.

For `O=C(c1ccncc1)c1cc(Cl)ccc1NS(=O)(=O)c1ccc(N2CCSCC2)cc1`, the IC50 is under 1000 nM.

Turning to `CC(=O)N1CCN(c2ccc(S(=O)(=O)Nc3ccc(Cl)cc3C(=O)c3ccncc3)cc2)CC1`, the IC50 was over 1000 nM.

Take `Cc1ccc(C(=O)c2cc(Cl)ccc2NS(=O)(=O)c2ccc(C(C)(C)c3ncco3)cc2)cn1`: the IC50 was under 1000 nM.

In the case of `CC1(c2ccc(S(=O)(=O)Nc3ccc(Cl)cc3C(=O)c3ccc[n+]([O-])c3)cc2)CCOCC1`, the half-maximal inhibitory concentration (IC50) is under 1000 nM.

Consider `Cc1ccc(C(=O)c2cc(Cl)ccc2NS(=O)(=O)c2ccc(C(C)(C)c3cnco3)cc2)cn1`, for which the concentration for half-maximal inhibition (IC50) was under 1000 nM.

For the compound `Cc1ncccc1C(=O)c1cc(Cl)ccc1NS(=O)(=O)c1ccc(C(C)(C)C)cc1`, the IC50 was under 1000 nM.

Regarding `COC(=O)CCc1ccc(S(=O)(=O)Nc2ccc(Cl)cc2C(=O)c2ccncc2)cc1`, the half-maximal inhibitory concentration (IC50) was under 1000 nM.

On to `CC(C)(C)c1ccc(S(=O)(=O)Nc2ccc(Cl)cc2C(=O)c2ccncn2)cc1`, for which the IC50 is under 1000 nM.

As to `CC(C)(C)OC(=O)n1c(-c2ccc(S(=O)(=O)Nc3ccc(Cl)cc3C(=O)c3ccncc3)cc2)cc2ccccc21`, the concentration for half-maximal inhibition (IC50) is over 1000 nM.

Take `CC(C)Oc1ccc(S(=O)(=O)Nc2ccc(Br)cc2C(=O)c2ccncc2)cc1`: the concentration for half-maximal inhibition (IC50) was under 1000 nM.

For `CC(=O)c1ccc(S(=O)(=O)Nc2ccc(Cl)cc2C(=O)c2ccncc2)cc1`, the IC50 is over 1000 nM.

In the case of `COc1ccc(S(=O)(=O)Nc2ccc(Cl)cc2C(=O)c2ccncc2)cc1`, the half-inhibitory concentration (IC50) was under 1000 nM.

`O=C(c1ccncc1)c1cc(Cl)ccc1NS(=O)(=O)c1ccc(-c2csnn2)cc1`: the half-inhibitory concentration (IC50) is under 1000 nM.

For `CC1(c2ccc(S(=O)(=O)Nc3ccc(Cl)cc3C(=O)c3ccccn3)cc2)CCOCC1`, the IC50 was under 1000 nM.

`CC1(c2ccc(S(=O)(=O)Nc3ccc(Cl)cc3C(=O)c3ccncc3)cc2)OCCO1`: the half-inhibitory concentration (IC50) is under 1000 nM.

As for `Cc1cccc(C(=O)c2cc(Cl)ccc2NS(=O)(=O)c2ccc(-c3cnco3)cc2)n1`, the IC50 was under 1000 nM.

Turning to `COc1ccc(S(=O)(=O)Nc2ccc(Cl)cc2C(=O)c2nccn2C)cc1`, the half-inhibitory concentration (IC50) was over 1000 nM.

In the case of `O=C(c1ccncc1)c1cc(Cl)ccc1NS(=O)(=O)c1ccc(-c2cnco2)cc1`, the IC50 was under 1000 nM.

`C[C@@H]1CN(c2ccc(S(=O)(=O)Nc3ccc(Cl)cc3C(=O)c3cc[n+]([O-])cc3)cc2F)C[C@H](C)O1`: the half-inhibitory concentration (IC50) was under 1000 nM.

As for `Cc1ccc(C(=O)c2cc(Cl)ccc2NS(=O)(=O)c2ccc(N3CCOCC3)c(F)c2)cn1`, the 50% inhibitory concentration (IC50) is under 1000 nM.

Regarding `Cc1ccc(C(=O)c2cc(Cl)ccc2NS(=O)(=O)c2ccc(C(C)(C)c3cocn3)cc2)cn1`, the IC50 is under 1000 nM.

For `CS(=O)(=O)c1ccc(S(=O)(=O)Nc2ccc(Cl)cc2C(=O)c2ccc(Cl)[n+]([O-])c2)cc1`, the half-inhibitory concentration (IC50) is under 1000 nM.

As for `O=C(c1cccnc1)c1cc(F)c(F)cc1NS(=O)(=O)c1ccc(N2CCOCC2)cc1`, the IC50 was under 1000 nM.

As to `O=C(c1ccncc1)c1cc(Cl)ccc1NS(=O)(=O)c1ccc(N2CCOCC2)cc1`, the IC50 is under 1000 nM.

On to `O=C(c1ccncc1)c1cc(Cl)ccc1NS(=O)(=O)c1ccc(-c2cncnc2)cc1`, for which the IC50 was over 1000 nM.

Turning to `COc1ccc(S(=O)(=O)Nc2ccc(Cl)cc2C(=O)N2CCCCC2)cc1`, the IC50 was over 1000 nM.

With `Cc1ccc(C(=O)c2cc(Cl)ccc2NS(=O)(=O)c2ccc(C(C)(C)c3ncco3)cc2)c[n+]1[O-]`, the IC50 is under 1000 nM.

With `CC(=O)c1ccc(S(=O)(=O)Nc2ccc(Cl)cc2C(=O)c2ccnc(C)c2)cc1`, the 50% inhibitory concentration (IC50) is over 1000 nM.

Turning to `CC(C)(C)c1ccc(S(=O)(=O)Nc2ccc(Cl)cc2C(=O)c2ccnc(C#N)c2)cc1`, the 50% inhibitory concentration (IC50) was under 1000 nM.

Take `Cc1ncccc1C(=O)c1cc(Cl)ccc1NS(=O)(=O)c1ccc(OC(C)C)cc1`: the IC50 was under 1000 nM.

Take `CC(C)(c1ccc(S(=O)(=O)Nc2ccc(Cl)cc2C(=O)c2ccncc2)cc1)c1ncco1`: the IC50 is under 1000 nM.

As for `CC1(c2ccc(S(=O)(=O)Nc3ccc(Cl)cc3C(=O)c3cc[n+]([O-])cc3)cc2)OCCO1`, the IC50 is under 1000 nM.

With `C[C@@H]1CN(c2ccc(S(=O)(=O)Nc3ccc(Cl)cc3C(=O)c3cc[n+]([O-])cc3)cc2)C[C@H](C)O1`, the IC50 was under 1000 nM.

On to `O=C(c1ccncc1)c1cc(Cl)ccc1NS(=O)(=O)c1ccc(Cl)cc1`, for which the half-maximal inhibitory concentration (IC50) is over 1000 nM.

For `CC(C)Sc1ccc(S(=O)(=O)Nc2ccc(Cl)cc2C(=O)c2ccncc2)cc1`, the IC50 is under 1000 nM.

For `Cc1ccc(C(=O)c2cc(Cl)ccc2NS(=O)(=O)c2ccc(C3(C)CCOCC3)cc2)cn1`, the IC50 was under 1000 nM.

`Cc1ccc(C(=O)c2cc(Cl)ccc2NS(=O)(=O)c2ccc(C(C)(C)C)cc2)cn1`: the IC50 was under 1000 nM.

Consider `Cc1ncccc1C(=O)c1cc(Cl)ccc1NS(=O)(=O)c1ccc(S(C)(=O)=O)cc1`, for which the IC50 was under 1000 nM.

On to `CC(C)(c1ccc(S(=O)(=O)Nc2ccc(Cl)cc2C(=O)c2ccc[n+]([O-])c2)cc1)c1ncco1`, for which the IC50 was under 1000 nM.

On to `Cn1nc(C(=O)c2cc(Cl)ccc2NS(=O)(=O)c2ccc(C(C)(C)C)cc2)c2ccccc21`, for which the 50% inhibitory concentration (IC50) was over 1000 nM.

On to `CC(C)(C)c1ccc(S(=O)(=O)Nc2ccc(Cl)cc2C(=O)c2nccs2)cc1`, for which the IC50 is under 1000 nM.

Consider `O=C(c1ccncc1)c1cc(Cl)ccc1NS(=O)(=O)c1ccc(N2CCCCC2)cc1`, for which the IC50 is under 1000 nM.

`O=C(c1ccc[n+]([O-])c1)c1cc(Cl)ccc1NS(=O)(=O)c1ccc(N2CCOCC2)cc1`: the IC50 was under 1000 nM.

Turning to `CC(C)(C)c1ccc(S(=O)(=O)Nc2ccc(F)c(F)c2C(=O)c2ccncc2)cc1`, the half-maximal inhibitory concentration (IC50) is under 1000 nM.

As to `COc1ccc(S(=O)(=O)Nc2ccc(Cl)cc2C(=O)Nc2ccccc2)cc1`, the IC50 was under 1000 nM.

For `CC(C)(c1ccc(S(=O)(=O)Nc2ccc(Cl)cc2C(=O)c2ccnc(Cl)c2)cc1)c1ncco1`, the IC50 is under 1000 nM.

Consider `CC(C)(C)c1ccc(S(=O)(=O)Nc2ccc(Cl)cc2C(=O)c2ccc[n+]([O-])c2)cc1`, for which the IC50 was under 1000 nM.

For the compound `COc1ccc(S(=O)(=O)Nc2ccc(Cl)cc2C(=O)NCc2ccccc2)cc1`, the half-maximal inhibitory concentration (IC50) is under 1000 nM.

For the compound `Cc1cc(C(=O)c2cc(Cl)ccc2NS(=O)(=O)c2ccc(OC(F)(F)F)cc2)ccn1`, the concentration for half-maximal inhibition (IC50) was under 1000 nM.

As for `CC(C)(C)c1ccc(S(=O)(=O)Nc2ccc(Cl)cc2C(=O)c2ccc(Cl)nc2)cc1`, the IC50 was under 1000 nM.

`O=C(c1ccncc1)c1cc(Cl)ccc1NS(=O)(=O)c1ccc(C(F)(F)F)cc1`: the IC50 is over 1000 nM.

With `CC1(c2ccc(S(=O)(=O)Nc3ccc(Cl)cc3C(=O)c3cccnc3)cc2)CCOCC1`, the IC50 was under 1000 nM.

As to `CC(=O)c1ccc(S(=O)(=O)Nc2ccc(Cl)cc2C(=O)c2ccc(C)nc2)cc1`, the IC50 is over 1000 nM.

Consider `Cc1c(C(=O)c2cc(Cl)ccc2NS(=O)(=O)c2ccc(C(C)(C)C)cc2)ccc[n+]1[O-]`, for which the IC50 was under 1000 nM.

Take `Cc1cc(C(=O)c2cc(Cl)ccc2NS(=O)(=O)c2ccc(OC(C)C)cc2)cc[n+]1[O-]`: the IC50 is under 1000 nM.

For `O=C(c1ccncc1)c1cc(Cl)ccc1NS(=O)(=O)c1ccc(N2CCOCC2)c(F)c1`, the half-maximal inhibitory concentration (IC50) is under 1000 nM.

In the case of `Cc1cc(C(=O)c2cc(Cl)ccc2NS(=O)(=O)c2ccc(C3(C)CCOCC3)cc2)cc[n+]1[O-]`, the IC50 was under 1000 nM.

For `CC(C)(C)c1ccc(S(=O)(=O)Nc2ccc(F)cc2C(=O)c2ccncc2)cc1`, the concentration for half-maximal inhibition (IC50) was under 1000 nM.

In the case of `O=C(c1ccncc1)c1cc(Cl)ccc1NS(=O)(=O)c1ccc(-c2ccccc2)cc1`, the IC50 is under 1000 nM.

As for `CC(C)c1ccc(S(=O)(=O)Nc2ccc(Br)cc2C(=O)c2ccncc2)cc1`, the IC50 is under 1000 nM.

With `O=C(c1cccnc1)c1cc(Cl)ccc1NS(=O)(=O)c1ccc(OC(F)(F)F)cc1`, the IC50 was under 1000 nM.

As to `CC(C)(C)c1ccc(S(=O)(=O)Nc2ccc(S(=O)(=O)N3CCCC3)cc2C(=O)c2cc[n+]([O-])cc2)cc1`, the 50% inhibitory concentration (IC50) is over 1000 nM.

Turning to `O=C(c1ccncc1)c1cc(Cl)ccc1NS(=O)(=O)c1ccc(N2CCNCC2)cc1`, the half-inhibitory concentration (IC50) was over 1000 nM.

`Cc1ccncc1C(=O)c1cc(Cl)ccc1NS(=O)(=O)c1ccc(-c2cnco2)cc1`: the 50% inhibitory concentration (IC50) is under 1000 nM.

For `O=C(c1ccncc1)c1cc(Cl)ccc1NS(=O)(=O)c1ccc(-c2ccoc2)cc1`, the IC50 is under 1000 nM.

For the compound `O=C(c1ccncc1)c1cc(Cl)ccc1NS(=O)(=O)c1ccc(-c2ncco2)cc1`, the concentration for half-maximal inhibition (IC50) was under 1000 nM.

On to `CC1(c2ccc(S(=O)(=O)Nc3ccc(Cl)cc3C(=O)c3ccncc3)cc2)CCOCC1`, for which the IC50 is under 1000 nM.

Take `C[C@@H]1CN(c2ccc(S(=O)(=O)Nc3ccc(Cl)cc3C(=O)c3ccc[n+]([O-])c3)cc2)C[C@H](C)O1`: the IC50 was under 1000 nM.

Regarding `Cc1cc(C(=O)c2cc(Cl)ccc2NS(=O)(=O)c2ccc(C3(C)CCOCC3)cc2)ccn1`, the half-maximal inhibitory concentration (IC50) is under 1000 nM.

For `CN(C)C(=O)C(C)(C)c1ccc(S(=O)(=O)Nc2ccc(Cl)cc2C(=O)c2ccncc2)cc1`, the IC50 is over 1000 nM.

Take `Cc1cccc(C(=O)c2cc(Cl)ccc2NS(=O)(=O)c2ccc(C(C)(C)C)cc2)n1`: the half-maximal inhibitory concentration (IC50) is under 1000 nM.
